Results as given in the CheMixHub ionic liquid set.

Assay: xn = mol fraction of the nth substance listed

NCC(O)CO (stereo not drawn) + CC[n+]1ccn(C)c1.[Cl-]
101 kPa, x2 = 0.667
Settings	viscosity [mPa·s]
298.15 K	321
303.15 K	230
313.15 K	125.5
323.15 K	70.2
333.15 K	44.6

CCCC[N+](CCCC)(CCCC)CCCC.[Cl-] + CNCCO
101.3 kPa
Settings	viscosity [mPa·s]
293.15 K, x1 = 0.09104	29.5
298.15 K, x1 = 0.09104	22.9
298.15 K, x1 = 0.111	26.1
303.15 K, x1 = 0.1441	27
308.15 K, x1 = 0.1441	21.1
313.15 K, x1 = 0.1441	17.1
318.15 K, x1 = 0.09104	11.4
328.15 K, x1 = 0.111	7.84

CC[n+]1ccn(C)c1C.F[B-](F)(F)F + CO
101.3 kPa
Settings	viscosity [mPa·s]
293.15 K, x1 = 0.1313	1.92
298.15 K, x1 = 0.09153	1.35
298.15 K, x1 = 0.2607	3.98
303.15 K, x1 = 0.03641	0.859
303.15 K, x1 = 0.1313	1.64
308.15 K, x1 = 0.06083	1.022
308.15 K, x1 = 0.09153	1.167
308.15 K, x1 = 0.1313	1.51
313.15 K, x1 = 0.1848	1.92
318.15 K, x1 = 0.3768	5.52
323.15 K, x1 = 0.03641	0.664
323.15 K, x1 = 0.09153	0.947
323.15 K, x1 = 0.1313	1.21
328.15 K, x1 = 0.09153	0.874
328.15 K, x1 = 0.1313	1.132
328.15 K, x1 = 0.3768	4.55
333.15 K, x1 = 0.1313	1.065
333.15 K, x1 = 0.1848	1.41

C[N+](C)(C)CCO.NCC(=O)[O-] + CO
viscosity [mPa·s], 100 kPa
Settings	x1 = 0.1002	x1 = 0.2001	x1 = 0.2997	x1 = 0.4004	x1 = 0.4994	x1 = 0.6	x1 = 0.6997	x1 = 0.8001	x1 = 0.9	x1 = 1
298.15 K	2.3	6.55	15.49	34.55	64.1	108.4	170.2	260	369	501
303.15 K	2.08	5.72	13.06	28.31	50.8	84	128.3	193.9	269	363
308.15 K	1.89	5.03	11.1	23.47	40.9	66.3	99.9	146.7	201	264
313.15 K	1.73	4.47	9.55	19.74	33.58	53.4	78.9	111.5	153.5	201
318.15 K	1.58	3.98	8.28	16.74	27.95	45.2	62.8	89.7	118.8	154.5
323.15 K	1.46	3.57	7.27	14.32	23.49	37.8	51.2	71.9	94.3	121.1

C[N+](C)(CCCS(=O)(=O)O)C1CCCCC1.Cc1ccc(S(=O)(=O)[O-])cc1 + CO
viscosity [mPa·s], 101 kPa
Settings	303.15 K	308.15 K	313.15 K	318.15 K	323.15 K	328.15 K
x1 = 0.01863	0.9656	0.8903	0.8173	0.7622	0.7053	0.6527
x1 = 0.04828	2.131	1.956	1.779	1.61	1.487	1.37
x1 = 0.1023	7.675	6.646	5.931	5.247	4.648	4.072
x1 = 0.2332	82.39	66.75	52.34	42.16	34.08	28.69
x1 = 1	113700	56930	32650	17830	10190	6293

CS(C)=O + COCCCC[n+]1ccn(C)c1.C[C@@H](O)[C@H](N)C(=O)[O-]
100 kPa, x2 = 0
Settings	viscosity [mPa·s]
288.15 K	2.47
293.15 K	2.21
298.15 K	1.99
303.15 K	1.81
308.15 K	1.65
313.15 K	1.51
318.15 K	1.39

CS(C)=O + COCCCC[n+]1ccn(C)c1.NCC(=O)[O-]
Settings	viscosity [mPa·s]
308.15 K, 100 kPa, x2 = 0	1.65

CCCC[n+]1ccn(C)c1.[Br-] + COCCO
viscosity [mPa·s], 100 kPa
Settings	298.15 K	303.15 K	308.15 K	313.15 K
x1 = 0.4	–	–	43.9	28
x1 = 0.5	–	101	–	40.3
x1 = 0.7002	350	–	–	75

COS(=O)(=O)[O-].Cn1cc[n+](C)c1 + COCCO
viscosity [mPa·s], 101 kPa
Settings	x1 = 0.0007603	x1 = 0.001899	x1 = 0.003034	x1 = 0.004168	x1 = 0.005298	x1 = 0.006426
293.15 K	2.01	2.03	2.05	2.07	2.09	2.11
303.15 K	1.4	1.42	1.44	1.46	1.48	1.5
313.15 K	0.97	0.99	1.01	1.03	1.05	1.07
